Data from patent publication EP0260814B1, “Dopamine-Beta-hydroxylase inhibitors” (SMITHKLINE BEECHAM CORPORATION, priority 1986, dated 1988).
Values belong to the molecule of their own block, whether it stands above or below them.

Key:
[1] = study comparing effects on blood pressure of hydroxy compounds and their methoxy analogues; format: in vivo; settings: for blood pressure reductions: equivalent doses of hydroxy compound and methoxy analogue
From the text: In a study conducted to compare the effects on blood pressure of compounds wherein Y is -OH, X is 3-F or 3,5-F₂ and n is 1 to their Y is -OCH₃ analogues, the maximum blood pressure reduction observed after administration of the hydroxy compound in which X is 3-F was 18%, whereas one-half the dose of its methoxy analogue produced a 35% blood pressure reduction. Also, equivalent doses of the compound in which Y is -OH, X is 3,5-F₂, and n is 1 and its Y is -OCH₃ analogue produced, respectively, 20% and 35% blood pressure reductions.

DBH [2] = target: T1, DBH (Homo sapiens, UniProt P09172); assay: in vitro DBH inhibition: conversion of tyramine to octopamine in the presence of DBH, absorbance at 330 nm; format: biochemical
T1 sequence (P09172 1-617): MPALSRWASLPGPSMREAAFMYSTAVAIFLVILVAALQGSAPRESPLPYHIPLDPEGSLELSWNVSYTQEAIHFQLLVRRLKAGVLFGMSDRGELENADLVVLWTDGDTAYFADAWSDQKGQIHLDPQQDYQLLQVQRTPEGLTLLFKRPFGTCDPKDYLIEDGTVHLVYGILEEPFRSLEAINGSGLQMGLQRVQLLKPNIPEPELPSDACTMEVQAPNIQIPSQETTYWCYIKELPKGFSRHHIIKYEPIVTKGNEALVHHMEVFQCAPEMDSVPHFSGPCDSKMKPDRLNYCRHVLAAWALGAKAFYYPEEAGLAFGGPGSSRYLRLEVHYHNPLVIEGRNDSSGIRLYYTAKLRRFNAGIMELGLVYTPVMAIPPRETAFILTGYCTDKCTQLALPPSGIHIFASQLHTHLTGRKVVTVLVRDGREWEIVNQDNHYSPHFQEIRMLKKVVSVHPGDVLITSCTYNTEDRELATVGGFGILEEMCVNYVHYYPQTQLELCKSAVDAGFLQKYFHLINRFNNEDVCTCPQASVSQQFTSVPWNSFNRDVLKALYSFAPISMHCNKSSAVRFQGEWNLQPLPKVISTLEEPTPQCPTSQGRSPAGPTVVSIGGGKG
Experimental: Octopamine was assayed following sodium periodate oxidation to p-hydroxybenzaldehyde by measuring spectrophotometric absorbance at 330 nm. […] Melting points (mp) are given in °C. […]

DBH [3] = target: T1, DBH; settings: reported by Runti et al.; cited from earlier work
[4] = test system: peripheral dopamine and norepinephrine levels; assay: effects on peripheral dopamine and norepinephrine levels (procedure of DaPrada and Zürcher); format: in vivo, Spontaneously hypertensive rats
Experimental: Spontaneously hypertensive rats were dosed twice, the second dose being about 18 hr after the first, and were sacrificed about 2 hr after the second dose. […] In Table II, R= -H, Y= -OH and n=1; in Table II A, R= -H, Y= -OCH₃, and n=1.

inhibition at 100 µM (DBH [2]; at 10⁻⁴ molar concentration): 67%
Structure (SMILES): COc1ccc(Cn2ccnc2S)cc1F [Example 5, 1-(3-Fluoro-4-methoxybenzyl)-2-mercaptoimidazole]
blood pressure reduction ([1]; one-half the dose of the hydroxy compound in which X is 3-F): 35%

Structure (SMILES): O=C(O)c1ccc(Cc2ccc(O)cc2)cn1 [phenypicolinic acid]
inhibitory activity relative to fusaric acid (DBH [3]): twice the inhibitory activity of fusaric acid

Structure (SMILES): Oc1c(F)cc(Cn2ccnc2S)cc1F [n=1, X=3,5-F₂, Y=OH, R=H]
blood pressure reductions ([1]; dose not given): 20% | DA/NE Ratio ([4]; Table II (for X= compounds: R= -H, Y= -OH, n=1), 50 mg/kg, dosed twice): .0824 .0128^(2) | DA (µg/g) ([4]; Table II (for X= compounds: R= -H, Y= -OH, n=1), 50 mg/kg, dosed twice, sacrificed about 2 hr after second dose): .708 .068^(1) µg/g

Structure (SMILES): COc1c(F)cc(Cn2ccnc2S)cc1F [Example 6, 1-(3,5-Difluoro-4-methoxybenzyl)-2-mercaptoimidazole]
blood pressure reductions ([1]; dose not given): 35% | DA/NE Ratio ([4]; Table IIA (R= -H, Y= -OCH₃, n=1), dose not given): .204^(1) | DA ([4]; Table IIA (R= -H, Y= -OCH₃, n=1), dose not given, dosed twice, sacrificed about 2 hr after second dose): 1.178 ± .087 µg/g

IC50 (DBH [2]; molar concentration of compound at which DBH activity was halved, read-out: IC₅₀): 1.4 µM
Structure (SMILES): Oc1ccc(Cn2ccnc2S)cc1F [n=1, X=3-F, Y=OH, R=H]
maximum blood pressure reduction ([1]; after administration of the hydroxy compound, dose not given): 18%
